ChEMBL document CHEMBL4350951, “Emerging and Re-Emerging Warheads for Targeted Covalent Inhibitors: Applications in Medicinal Chemistry and Chemical Biology” (J Med Chem, 2019)

Columns and labels:
[1] = Cysteine reactivity assessed as cysteine oxidation; type: physicochemical
[2] = target: Serine/threonine-protein kinase PLK1 (Homo sapiens, UniProt P53350); test: Inhibition of PLK1 (unknown origin)
[3] = target: T1, Phosphatidylinositol 4,5-bisphosphate 3-kinase catalytic subunit delta isoform (Homo sapiens) (UniProt O00329); test: (§1) Inhibition of PI3Kdelta (unknown origin)
T1 sequence (whole entry): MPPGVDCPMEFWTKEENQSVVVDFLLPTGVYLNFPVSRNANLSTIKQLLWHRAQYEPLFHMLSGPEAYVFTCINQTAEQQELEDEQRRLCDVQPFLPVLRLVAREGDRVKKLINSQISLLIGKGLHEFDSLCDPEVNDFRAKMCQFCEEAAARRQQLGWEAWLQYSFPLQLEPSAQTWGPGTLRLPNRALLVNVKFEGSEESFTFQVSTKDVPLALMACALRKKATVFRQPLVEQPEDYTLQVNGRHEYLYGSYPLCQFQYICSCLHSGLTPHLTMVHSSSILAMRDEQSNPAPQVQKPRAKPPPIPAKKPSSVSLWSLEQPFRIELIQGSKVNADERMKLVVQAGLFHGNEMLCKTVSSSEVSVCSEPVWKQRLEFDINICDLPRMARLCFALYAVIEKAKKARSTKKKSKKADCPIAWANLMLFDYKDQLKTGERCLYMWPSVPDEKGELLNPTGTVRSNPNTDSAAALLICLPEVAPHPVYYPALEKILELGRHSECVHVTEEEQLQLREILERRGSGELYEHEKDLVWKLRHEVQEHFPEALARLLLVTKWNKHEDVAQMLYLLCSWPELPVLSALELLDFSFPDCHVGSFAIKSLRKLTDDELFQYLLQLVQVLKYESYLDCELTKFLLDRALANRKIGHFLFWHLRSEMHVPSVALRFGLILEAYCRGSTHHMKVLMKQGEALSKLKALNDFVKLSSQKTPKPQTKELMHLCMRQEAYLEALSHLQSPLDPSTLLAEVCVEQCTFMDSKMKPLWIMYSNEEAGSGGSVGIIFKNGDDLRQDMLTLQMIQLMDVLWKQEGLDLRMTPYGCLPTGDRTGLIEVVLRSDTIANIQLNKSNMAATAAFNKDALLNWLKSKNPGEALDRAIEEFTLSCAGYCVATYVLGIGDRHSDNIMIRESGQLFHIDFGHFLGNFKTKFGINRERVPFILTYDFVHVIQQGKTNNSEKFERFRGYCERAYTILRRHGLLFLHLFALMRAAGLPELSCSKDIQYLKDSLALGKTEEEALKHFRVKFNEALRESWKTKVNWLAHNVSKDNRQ

[4] = target: T2, Phosphatidylinositol 4,5-bisphosphate 3-kinase catalytic subunit delta isoform (Homo sapiens, UniProt O00329); test: as §1
T2 sequence (O00329 whole entry): T1 sequence (whole entry)

m7GpppX diphosphatase = target: T3, m7GpppX diphosphatase (Homo sapiens, UniProt Q96C86); test: Inhibition of DcpS (unknown origin) using m7GpppA as substrate by ELISA
T3 sequence (Q96C86 whole entry): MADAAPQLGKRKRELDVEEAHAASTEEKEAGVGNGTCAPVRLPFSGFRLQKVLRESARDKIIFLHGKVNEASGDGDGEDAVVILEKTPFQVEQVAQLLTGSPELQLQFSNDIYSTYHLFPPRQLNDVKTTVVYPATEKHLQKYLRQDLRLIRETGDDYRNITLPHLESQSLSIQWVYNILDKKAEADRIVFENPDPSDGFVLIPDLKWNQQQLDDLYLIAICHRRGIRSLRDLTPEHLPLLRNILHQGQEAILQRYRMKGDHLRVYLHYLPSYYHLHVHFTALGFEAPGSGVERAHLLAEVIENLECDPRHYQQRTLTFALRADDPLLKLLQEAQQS

[5] = Half life of the compound in aqueous buffer at pH 7.2; type: physicochemical
[6] = target: T4, Peptidyl-prolyl cis-trans isomerase FKBP1A (Homo sapiens, UniProt P62942); test: Inhibition of recombinant human FKBP12 after 24 hrs by MS/MS analysis
[7] = target: T4, Peptidyl-prolyl cis-trans isomerase FKBP1A; test: Inhibition of recombinant human FKBP12 assessed as ratio of Kinact to Ki after 24 hrs by MS/MS analysis
[8] = target: T5, Induced myeloid leukemia cell differentiation protein Mcl-1 (Homo sapiens, UniProt Q07820); test: Binding kinetics to MCl-1 (unknown origin) assessed as dissociation rate constant for state one
[9] = target: T5, Induced myeloid leukemia cell differentiation protein Mcl-1; test: Binding kinetics to MCl-1 (unknown origin) assessed as dissociation rate constant for state two
[10] = Half life in mouse at 20 mg/kg, ip; type: ADME, organism-based; conditions: in vivo
[11] = Half life of the compound at pH 7.5; type: physicochemical
Hsp90 (human) [12] = test: Inhibition of human Hsp90 assessed as ratio of Kinact to Ki by MS/MS analysis
Hsp90 (human) [13] = test: Inhibition of human Hsp90 by MS/MS analysis
[14] = Inhibition of PLK1 C675 mutant (unknown origin); set-up: species or system Homo sapiens
[15] = Half life in plasma (unknown origin); type: ADME, cell-free
[16] = test system: Mycobacterium tuberculosis; test: Inhibition of Mycobacterium tuberculosis ICL1 assessed as ratio of Kinact to Ki
[17] = Dissociation constant, pKa of the compound; type: physicochemical
SRSF protein kinase 1 = SRSF protein kinase 1 (Homo sapiens, UniProt Q96SB4); test: Inhibition of SRPK1 (unknown origin) by TR-FRET assay
cells = conditions: Homo sapiens, MOLP-8
Description: Cytotoxicity against human MOLP8 cells

[18] = target: Glutathione S-transferase P (Homo sapiens) (UniProt P09211); test: Inhibition of GSTP1 (unknown origin) assessed as ratio of Kinact to Ki by MS/MS analysis
[19] = target: ALK tyrosine kinase receptor (Homo sapiens, UniProt Q9UM73)
Chain of ALK tyrosine kinase receptor (Q9UM73 whole entry): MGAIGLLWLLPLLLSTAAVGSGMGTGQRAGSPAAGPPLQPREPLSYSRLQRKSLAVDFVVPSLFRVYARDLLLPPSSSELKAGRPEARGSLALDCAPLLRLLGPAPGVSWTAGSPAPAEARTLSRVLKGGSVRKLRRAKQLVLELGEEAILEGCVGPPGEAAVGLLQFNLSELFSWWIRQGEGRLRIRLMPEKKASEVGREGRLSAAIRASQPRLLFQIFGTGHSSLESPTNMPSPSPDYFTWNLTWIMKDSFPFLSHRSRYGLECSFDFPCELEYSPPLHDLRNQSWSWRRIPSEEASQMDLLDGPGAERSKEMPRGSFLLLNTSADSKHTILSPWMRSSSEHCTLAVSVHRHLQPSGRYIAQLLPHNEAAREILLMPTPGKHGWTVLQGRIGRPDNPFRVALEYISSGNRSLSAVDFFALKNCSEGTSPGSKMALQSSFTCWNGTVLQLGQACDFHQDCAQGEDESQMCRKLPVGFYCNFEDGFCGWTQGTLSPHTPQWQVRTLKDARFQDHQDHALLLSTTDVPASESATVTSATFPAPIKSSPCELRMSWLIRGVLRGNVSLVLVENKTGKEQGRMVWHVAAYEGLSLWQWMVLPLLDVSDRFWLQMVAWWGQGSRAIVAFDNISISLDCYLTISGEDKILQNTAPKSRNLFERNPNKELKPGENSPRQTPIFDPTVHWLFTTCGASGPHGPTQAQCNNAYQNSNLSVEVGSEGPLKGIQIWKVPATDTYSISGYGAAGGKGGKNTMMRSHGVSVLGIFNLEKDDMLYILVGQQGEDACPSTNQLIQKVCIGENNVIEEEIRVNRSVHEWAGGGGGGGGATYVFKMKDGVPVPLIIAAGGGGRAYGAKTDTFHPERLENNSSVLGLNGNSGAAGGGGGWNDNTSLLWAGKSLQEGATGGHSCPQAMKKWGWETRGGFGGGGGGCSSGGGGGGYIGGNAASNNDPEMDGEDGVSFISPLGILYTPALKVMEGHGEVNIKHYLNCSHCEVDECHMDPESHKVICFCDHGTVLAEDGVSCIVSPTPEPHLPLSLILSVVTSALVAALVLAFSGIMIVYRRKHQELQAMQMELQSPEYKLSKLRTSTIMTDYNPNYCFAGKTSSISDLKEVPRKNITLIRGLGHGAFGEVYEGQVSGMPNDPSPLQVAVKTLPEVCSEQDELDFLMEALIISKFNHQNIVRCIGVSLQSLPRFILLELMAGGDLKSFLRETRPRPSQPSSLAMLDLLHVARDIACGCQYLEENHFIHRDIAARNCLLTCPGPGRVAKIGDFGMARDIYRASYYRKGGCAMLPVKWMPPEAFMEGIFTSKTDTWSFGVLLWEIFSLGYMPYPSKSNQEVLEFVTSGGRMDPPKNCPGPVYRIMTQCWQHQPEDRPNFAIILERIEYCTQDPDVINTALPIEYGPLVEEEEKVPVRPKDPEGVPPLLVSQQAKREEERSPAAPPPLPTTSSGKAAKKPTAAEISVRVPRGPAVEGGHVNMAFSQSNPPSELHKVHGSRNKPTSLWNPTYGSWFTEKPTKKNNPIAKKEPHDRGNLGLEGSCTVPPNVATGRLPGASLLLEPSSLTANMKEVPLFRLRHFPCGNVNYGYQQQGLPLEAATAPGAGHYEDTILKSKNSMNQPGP
Description: Inhibition of ALK (unknown origin) by TR-FRET assay

T5 sequence (Q07820 whole entry): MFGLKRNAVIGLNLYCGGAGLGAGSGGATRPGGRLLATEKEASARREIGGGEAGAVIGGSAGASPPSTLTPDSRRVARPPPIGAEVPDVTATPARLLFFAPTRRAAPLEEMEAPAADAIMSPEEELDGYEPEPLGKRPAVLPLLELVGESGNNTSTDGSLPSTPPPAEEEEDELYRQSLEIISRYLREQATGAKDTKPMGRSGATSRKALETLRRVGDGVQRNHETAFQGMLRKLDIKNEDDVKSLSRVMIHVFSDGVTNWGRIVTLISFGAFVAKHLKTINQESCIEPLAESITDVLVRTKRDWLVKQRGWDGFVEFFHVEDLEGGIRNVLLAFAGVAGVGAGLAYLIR
T4 sequence (P62942 whole entry): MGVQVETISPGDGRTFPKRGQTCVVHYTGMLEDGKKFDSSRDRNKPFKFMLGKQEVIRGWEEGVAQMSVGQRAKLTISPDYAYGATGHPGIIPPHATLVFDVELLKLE
Chain of Serine/threonine-protein kinase PLK1 (P53350 whole entry, canonical isoform): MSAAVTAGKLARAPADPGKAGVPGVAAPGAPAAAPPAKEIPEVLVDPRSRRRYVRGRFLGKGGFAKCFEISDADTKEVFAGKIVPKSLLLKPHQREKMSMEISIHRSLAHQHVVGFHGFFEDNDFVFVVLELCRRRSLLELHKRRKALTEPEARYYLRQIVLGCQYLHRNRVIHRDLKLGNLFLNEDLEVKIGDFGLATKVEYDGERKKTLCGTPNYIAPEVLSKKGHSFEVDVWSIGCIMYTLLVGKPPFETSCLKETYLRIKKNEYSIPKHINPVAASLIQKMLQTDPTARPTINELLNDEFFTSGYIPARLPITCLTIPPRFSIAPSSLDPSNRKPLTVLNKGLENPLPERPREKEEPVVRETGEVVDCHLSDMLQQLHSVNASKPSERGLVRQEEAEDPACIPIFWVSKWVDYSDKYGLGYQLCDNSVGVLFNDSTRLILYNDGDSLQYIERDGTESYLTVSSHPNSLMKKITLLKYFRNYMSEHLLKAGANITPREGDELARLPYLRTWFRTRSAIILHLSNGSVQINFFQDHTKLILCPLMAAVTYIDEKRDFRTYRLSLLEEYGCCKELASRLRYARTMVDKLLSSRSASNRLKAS
Chain of Glutathione S-transferase P (Homo sapiens) (P09211 2-210 limits assumed): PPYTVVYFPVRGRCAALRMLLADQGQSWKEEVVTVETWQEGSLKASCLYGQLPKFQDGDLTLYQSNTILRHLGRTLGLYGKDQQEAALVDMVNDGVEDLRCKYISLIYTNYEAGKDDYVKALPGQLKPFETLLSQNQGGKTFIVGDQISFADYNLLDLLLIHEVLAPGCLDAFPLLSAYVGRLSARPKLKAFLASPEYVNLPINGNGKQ
Chain of SRSF protein kinase 1 (Q96SB4 whole entry): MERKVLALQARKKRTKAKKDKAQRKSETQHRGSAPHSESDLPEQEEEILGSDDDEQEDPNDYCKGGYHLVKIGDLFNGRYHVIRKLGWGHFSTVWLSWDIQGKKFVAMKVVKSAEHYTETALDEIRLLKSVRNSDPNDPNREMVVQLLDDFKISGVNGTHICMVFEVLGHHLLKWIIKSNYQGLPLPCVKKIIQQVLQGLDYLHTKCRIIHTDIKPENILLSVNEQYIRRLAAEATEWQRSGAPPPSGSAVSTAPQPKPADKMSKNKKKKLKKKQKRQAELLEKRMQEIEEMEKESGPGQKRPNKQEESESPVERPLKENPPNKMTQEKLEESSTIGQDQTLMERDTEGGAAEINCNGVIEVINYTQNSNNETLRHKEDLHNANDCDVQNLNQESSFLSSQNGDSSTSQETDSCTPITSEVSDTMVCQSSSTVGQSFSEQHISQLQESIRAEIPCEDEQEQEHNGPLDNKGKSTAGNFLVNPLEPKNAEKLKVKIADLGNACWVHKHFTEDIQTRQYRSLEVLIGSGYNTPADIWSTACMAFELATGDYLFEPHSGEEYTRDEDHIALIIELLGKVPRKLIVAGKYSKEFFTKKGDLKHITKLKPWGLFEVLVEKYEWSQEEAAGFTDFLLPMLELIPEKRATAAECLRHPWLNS

SMILES: N#CCS(=O)(=O)c1ccccc1
- K [1]: 78 min⁻¹

SMILES: NC(=O)c1sc2c([n+]1[O-])C(SC[C@H](N)C(=O)O)C(SC(F)(F)F)=CC2[N+](=O)[O-] (stereo partly drawn)
- IC50 [2]: 400 nM

SMILES: COc1ncc(-c2cc(-c3ncc(CN4CCN(C(C)C)CC4)o3)c3cn[nH]c3c2)cc1C(=O)Oc1ccc([N+](=O)[O-])cc1
- Kinact [3]: 0.0055 s⁻¹
- IC50 [4]: 0.617 nM
- Ki [4]: 40 nM

SMILES: Nc1nc(N)c2c(OCc3ccc(S(=O)(=O)F)cc3)cccc2n1
- IC50 (m7GpppX diphosphatase): < 0.02 nM

SMILES: C#CCCCC1CCC(=O)CC1=O (stereo not drawn)
- K [1]: 10 M⁻¹ s⁻¹

SMILES: C#CCCCN1CCC(=O)CC1=O
- K [1]: 1155 M⁻¹ s⁻¹

SMILES: CCC(C)(C)C(=O)C(=O)N1CCCC[C@H]1C(=O)O[C@H](CCc1ccc(OC)c(OC)c1)c1cccc(OCC(=O)NCCCCCNC(=O)c2ccc(S(=O)(=O)N(CC#N)C(=O)CCCC[C@@H]3SC[C@@H]4NC(=O)N[C@@H]43)cc2)c1
- half-life [5]: 43 h
- Ki [6]: 210 nM
- Kinact [6]: 6.1 ×10⁻³ /s
- Ratio [7]: 2.9 ×10⁴ /M/s

SMILES: Cc1c(-c2cccc3c(CCCOc4cccc5ccccc45)c(C(=O)O)[nH]c23)c(COc2ccc(B(O)O)c(C=O)c2)nn1C
- koff [8]: 0.14 s⁻¹
- koff [9]: 0.018 s⁻¹

SMILES: C#Cc1cccc(Oc2ccc(-c3nn([C@@H]4CCCN(C(=O)C=C)C4)c4ncnc(N)c34)cc2)c1
- half-life [10]: 2.8 h

SMILES: O=C1CC(=O)c2ccccc21
- K [1]: 22.9 min⁻¹

SMILES: O=S(=O)(F)c1ccccc1
- half-life [11]: 0.0833 to 0.25 h

SMILES: N#CCN(C(=O)CCCC(=O)NCCCn1c(Sc2cc3c(cc2I)OCO3)nc2c(N)ncnc21)S(=O)(=O)c1ccccc1
- Ratio (Hsp90 (human) [12]): 2.9 ×10⁴ /M/s
- Ki (Hsp90 (human) [13]): 62 nM

SMILES: C#CCCCN1c2ccccc2C(=O)CS1(=O)=O
- K [1]: 1700 M⁻¹ s⁻¹

SMILES: C#CCCCN1CS(=O)(=O)CC1=O
- K [1]: 20 M⁻¹ s⁻¹

SMILES: C#Cc1cccc(Oc2ccc(-c3nn([C@@H]4CCCN(C(=O)/C=C/C(=O)OC)C4)c4ncnc(N)c34)cc2)c1
- half-life [10]: < 0.0333 h

SMILES: C#CCCCN1CC(=O)CC1=O
- K [1]: 330 M⁻¹ s⁻¹

SMILES: O=C1CCN(Cc2ccccc2)C(=O)C1
- K [1]: 86.4 min⁻¹

SMILES: C#Cc1cccc(Oc2ccc(-c3nn([C@@H]4CCCN(C(=O)/C=C/C(=O)OC(C)C)C4)c4ncnc(N)c34)cc2)c1
- half-life [10]: < 0.0333 h

SMILES: NC(=O)c1sc2c([n+]1[O-])C(SC[C@H](N)C(=O)O)C(C(F)(F)F)=CC2[N+](=O)[O-] (stereo partly drawn)
- IC50 [14]: > 100000 nM
- IC50 [2]: 2500 nM

SMILES: COc1ncc(-c2cc(-c3ncc(CN4CCN(C(C)C)CC4)o3)c3cn[nH]c3c2)cc1C(=O)Oc1ccc(C)cc1C
- Ki [4]: 7800 nM

SMILES: O=[N+]([O-])CS(=O)(=O)c1ccccc1
- K [1]: 7.8 min⁻¹

SMILES: CS(=O)(=O)CC#N
- K [1]: 28.6 min⁻¹

SMILES: O=C1CCCC(=O)C1
- K [1]: 0.4 min⁻¹

SMILES: C[C@@H]1CCN(C(=O)CC#N)C[C@@H]1N(C)c1ncnc2[nH]ccc12 [TOFACITINIB]
- K [1]: 0.4 min⁻¹

SMILES: C#Cc1cccc(Oc2ccc(-c3nn([C@@H]4CCCN(C(=O)/C=C/C(=O)O)C4)c4ncnc(N)c34)cc2)c1
- half-life [10]: 2.15 h

SMILES: O=C1CS(=O)(=O)N(Cc2ccccc2)c2ccccc21
- K [1]: 190.5 min⁻¹

SMILES: CN(C)c1ccc(S(=O)(=O)F)cc1
- half-life [15]: 25.1 h

SMILES: O=C1CC(=O)NC(=O)N1 [BARBITURIC ACID]
- K [1]: 0.2 min⁻¹

SMILES: O=C(O)CC=[N+]([O-])[O-]
- Ratio [16]: 2.6 ×10⁴ /M/s
- pKa [17]: 9

SMILES: CCc1cc2c(cc1N1CCC(N3CCOCC3)CC1)C(C)(C)c1[nH]c3cc(C#N)ccc3c1C2=O [ALECTINIB]
- IC50 (SRSF protein kinase 1): 11 nM

SMILES: Cc1c(-c2cccc3c(CCCOc4cccc5ccccc45)c(C(=O)O)n(C)c23)c(COc2ccc(B(O)O)c(C=O)c2)nn1C
- EC50 (cells): 75 nM
- koff [8]: 0.13 s⁻¹
- koff [9]: 0.01 s⁻¹

SMILES: C#CCCCN(c1nc(Cl)nc(Cl)n1)[C@@H](CC(C)C)C(=O)OC
- Ratio [18]: 3.12 M⁻¹ s⁻¹

SMILES: CC(=O)CC(C)=O
- K [1]: 3.8 min⁻¹

SMILES: O=C1CS(=O)(=O)Cc2ccccc21
- K [1]: 54.9 min⁻¹

SMILES: CC(=O)CS(=O)(=O)c1ccccc1
- K [1]: 8.7 min⁻¹

SMILES: CCc1cc2c(cc1-c1cccc(S(=O)(=O)F)c1)C(C)(C)c1[nH]c3cc(C#N)ccc3c1C2=O
- IC50 [19]: 11 nM

SMILES: O=C1CCC(=O)C1
- K [1]: 0.02 min⁻¹
